The text below walks through data of US12351580B2, “NLRP3 modulators” (Innate Tumor Immunity, Inc., priority 2017, dated 2025).

The target in one experiment is T1, hNLRP3 (Homo sapiens, UniProt Q96P20).
T1 construct: THP-1 cells were purchased from the American Type Culture Collection; host or cells: THP-1 cells, PMA-differentiated
Kind of experiment: Measurement of IL-1β production in PMA-differentiated THP-1 cells (hNLRP3 agonist; ELISA, alternative and hTRF procedures). It is filed as cell-based. How it is done: Measurement of IL-1β production in PMA-differentiated THP-1 cells THP-1 cells were purchased from the American Type Culture Collection and sub-cultured according to instructions from the supplier. Prior to experiments, cells were cultured in RPMI 1640 containing 10% heat inactivated FBS, penicillin (100 units/ml) and streptomycin (100 μg/ml), and maintained in log phase prior to experimental setup. Prior to the experiment THP-1 were treated with PMA (Phorbol 12-myristate 13-acetate) ([…]) for 24 hours. The day of the experiment the media was removed and attaching cells were treated with trypsin for 2 minutes, cells were then collected, washed with PBS (phosphate buffer saline), spin down, resuspended in 2% heat inactivated FBS with RPMI at a concentration of 1×10^6 cells/ml, and 100 μl was plated in a 96 well plate. Compounds were dissolved in dimethyl sulfoxide (DMSO) and added to the culture medium to achieve desired concentration (e.g. 100, 30, 10, 3, 1, 0.3 or 0.1 μM). Cells were incubated with compounds for 4 hours. Cell free supernatant was collected and the production of […] was evaluated by ELISA. A vehicle only control was run concurrently with each experiment. Final DMSO concentration was 1%.
Measurement of IL-1β Production in PMA-Differentiated THP-1 Cells (Alternative Procedure)
THP-1 cells were purchased from the American Type Culture Collection and sub-cultured according to instructions from the supplier. Prior to experiments, cells were cultured in RPMI 1640 containing 10% heat inactivated FBS, penicillin (100 units/ml), streptomycin (100 μg/ml), HEPES (10 mM) and sodium pyruvate (1 mM) and maintained in log phase prior to experimental setup. Prior to the experiment, THP-1 cells were treated with PMA (Phorbol 12-myristate 13-acetate) (20 μg/ml) overnight. The day of the experiment, the media was removed and attached cells were treated with trypsin for 2 minutes, cells were then collected, washed with PBS (phosphate buffer saline), pelleted by centrifugation and resuspended in 2% heat inactivated FBS with RPMI at a concentration of 50,000 cells/well in a 384 well plate. Cell free supernatant was collected and the production of IL-1β was evaluated by ELISA. Compounds were dissolved in dimethyl sulfoxide (DMSO) and added to the culture medium to achieve desired concentration (e.g. 100, 30, 10, 3, 1, 0.3 or 0.1 μM). Cells were incubated with compounds for 2 hours. A vehicle only control was run concurrently with each experiment. Final DMSO concentration was 1%.
Measurement of IL-1β Production—hTRF Protocol (Second Alternative Procedure)
Serial dilutions of compounds in DMSO were added to low volume 384 well plates at 100 nl/well using an ECHO 550 acoustic dispenser (Labcyte) to achieve final starting concentration of 10 μM in assay.
THP-1 cells in RPMI (Gibco, 11875) media with 10% FBS at a density of 1×10^6 cell/ml in a T175 flask were treated with a final concentration of phorbol 12-myristate 13-acetate (PMA) (Sigma, P1585) of 50 ng/ml overnight at 37° C. at 5% CO2 for differentiation. Cells were harvested the next day after rinsing well with dPBS using 0.5% trypsin. A cell solution was prepared of 1×10^6 cells/ml for 50,000 cells in 50 μl/well in RPMI media with 2% FBS. Cells were plated using a multichannel pipette onto the compound dilutions in Greiner, 384 well, black clear bottom tissue culture treated plates (781090). The plates were incubated in 37° C. incubator at 5% CO2 for 2 hours.
After the 2 hour incubation, the cell plates were spun in the centrifuge for 5 minutes at 1200 rpm. Using the Felix (CyBio), 8 μl of the supernatant was transferred to 384 well, low volume, white proxy plates. (Perkin Elmer, 6008230). A human IL1beta hTRF kit was used to analyze the supernatant (CISBIO, 62HIL1BPEG). The kit instructions were followed for preparing the IL1Beta standard curve and then the antibodies from the kit were diluted 1:40 rather than 1:20 as kit instructed.
Background: An ELISA detects its analyte on a solid surface through an enzyme-linked reagent.

The target in the next experiment is T2, TLR7 (Homo sapiens, UniProt Q9NYK1).
T2 construct: host or cells: HEK-Blue cells (human HEK) co-expressing TLR7 and an NF-kB/AP1-inducible SEAP reporter
T2 sequence (Q9NYK1 27-1049): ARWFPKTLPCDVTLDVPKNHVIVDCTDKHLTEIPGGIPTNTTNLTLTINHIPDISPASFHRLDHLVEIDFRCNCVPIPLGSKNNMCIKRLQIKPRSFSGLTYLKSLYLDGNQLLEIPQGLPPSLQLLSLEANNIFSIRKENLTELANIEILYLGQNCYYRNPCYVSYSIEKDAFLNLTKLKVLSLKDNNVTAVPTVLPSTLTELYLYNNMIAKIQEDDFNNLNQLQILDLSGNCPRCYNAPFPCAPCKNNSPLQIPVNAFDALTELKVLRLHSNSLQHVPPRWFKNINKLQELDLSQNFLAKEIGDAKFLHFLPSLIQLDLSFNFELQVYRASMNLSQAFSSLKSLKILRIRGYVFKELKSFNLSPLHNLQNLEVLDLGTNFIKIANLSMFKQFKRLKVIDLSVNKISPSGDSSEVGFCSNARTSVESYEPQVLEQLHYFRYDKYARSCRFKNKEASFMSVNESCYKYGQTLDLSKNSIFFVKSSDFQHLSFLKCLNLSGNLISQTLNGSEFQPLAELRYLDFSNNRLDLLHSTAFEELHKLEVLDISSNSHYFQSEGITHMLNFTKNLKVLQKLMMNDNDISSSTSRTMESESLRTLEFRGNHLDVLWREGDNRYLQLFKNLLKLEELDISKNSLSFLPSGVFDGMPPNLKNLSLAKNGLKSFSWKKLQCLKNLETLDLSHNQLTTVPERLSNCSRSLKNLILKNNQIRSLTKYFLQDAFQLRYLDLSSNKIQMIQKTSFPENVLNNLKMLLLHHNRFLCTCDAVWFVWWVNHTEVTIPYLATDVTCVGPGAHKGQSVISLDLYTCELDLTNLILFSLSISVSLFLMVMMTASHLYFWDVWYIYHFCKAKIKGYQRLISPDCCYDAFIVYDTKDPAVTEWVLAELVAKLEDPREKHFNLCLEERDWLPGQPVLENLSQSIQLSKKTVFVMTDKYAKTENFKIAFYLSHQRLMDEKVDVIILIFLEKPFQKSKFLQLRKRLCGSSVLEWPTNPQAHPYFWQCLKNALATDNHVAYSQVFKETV
Kind of experiment: In vitro human TLR7 binding reporter assay (HEK-Blue, NF-kB/AP1-inducible SEAP). It is filed as cell-based. The following applies: activity range symbols. The procedure: In Vitro Human TLR7 and TLR8 Binding Reporter Assays
Logarithmically-growing human HEK-Blue cells co-expressing a TLR7 or TLR8 gene and a NF-kB/AP1-inducible SEAP (secreted embryonic alkaline phosphatase; Invivogen, San Diego, CA) reporter gene are added to individual wells of a 384-well plate (15,000 cells per 20 μL per well) and maintained for 24 h at 37° C., 5% CO2. Test compounds or DMSO are distributed to separate wells the next day using acoustic liquid handling technology (100 nL per well) and cells are subsequently incubated for 18 h at 37° C., 5% CO2. Cellular SEAP production is measured using an Envision plate reader instrument thirty minutes after adding freshly-made Quanti-Blue reagent (prepared by following manufacturer instructions; Invivogen, San Diego, CA) to the HEK-Blue TLR Nf-kB-SEAP cell reactions. All EC50 values (half-maximal effective concentration) are determined using proprietary data analysis software.
Background: A reporter such as luciferase makes a cellular process visible.

The EC50 is the concentration at which the effect is half-maximal.

A value given as a limit tells only on which side of the number the result lay.

T1 sequence (Q96P20 whole entry): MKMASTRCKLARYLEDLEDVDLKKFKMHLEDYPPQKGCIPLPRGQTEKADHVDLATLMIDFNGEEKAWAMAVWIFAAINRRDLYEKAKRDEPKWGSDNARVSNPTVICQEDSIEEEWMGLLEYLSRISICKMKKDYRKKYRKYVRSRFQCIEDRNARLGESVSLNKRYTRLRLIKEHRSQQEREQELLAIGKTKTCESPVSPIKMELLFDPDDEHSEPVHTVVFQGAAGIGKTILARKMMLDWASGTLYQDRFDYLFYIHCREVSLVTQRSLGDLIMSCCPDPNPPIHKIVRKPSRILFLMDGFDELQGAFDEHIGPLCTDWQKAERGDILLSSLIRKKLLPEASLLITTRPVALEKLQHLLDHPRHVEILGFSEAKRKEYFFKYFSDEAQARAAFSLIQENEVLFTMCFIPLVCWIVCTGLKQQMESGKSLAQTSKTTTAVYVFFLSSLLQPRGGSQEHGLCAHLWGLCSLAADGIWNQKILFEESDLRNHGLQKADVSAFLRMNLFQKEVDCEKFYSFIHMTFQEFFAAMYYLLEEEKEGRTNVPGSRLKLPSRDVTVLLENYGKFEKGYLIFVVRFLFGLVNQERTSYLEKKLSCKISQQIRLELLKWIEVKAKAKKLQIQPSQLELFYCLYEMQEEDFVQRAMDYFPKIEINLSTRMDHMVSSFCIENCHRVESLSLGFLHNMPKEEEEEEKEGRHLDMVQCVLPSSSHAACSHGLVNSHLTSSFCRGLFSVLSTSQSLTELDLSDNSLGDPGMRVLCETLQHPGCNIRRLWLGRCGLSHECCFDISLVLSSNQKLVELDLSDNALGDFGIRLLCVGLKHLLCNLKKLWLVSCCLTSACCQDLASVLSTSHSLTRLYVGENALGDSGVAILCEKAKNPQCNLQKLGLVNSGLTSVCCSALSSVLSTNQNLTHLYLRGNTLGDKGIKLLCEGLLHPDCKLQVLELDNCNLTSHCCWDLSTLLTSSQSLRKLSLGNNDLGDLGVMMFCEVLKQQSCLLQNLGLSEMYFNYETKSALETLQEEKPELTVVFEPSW

`Nc1nc2cc(-c3cc[nH]n3)ccc2c2[nH]c(CNC(=O)C3CC3)nc12` [Compound 105] came in with an EC50 on hNLRP3 of 0.69 µM.

`CC(C)C(=O)NCc1nc2c(N)nc3cc(-c4cc[nH]n4)ccc3c2[nH]1` [Compound 107] registered an EC50 at hNLRP3 of 0.64 µM.

Regarding `CC(=O)NCc1nc2c(N)nc3cc(-c4cc[nH]n4)ccc3c2[nH]1` [Compound 113, N-((4-Amino-7-(1H-pyrazol-3-yl)-1H-imidazo[4,5-c]quinolin-2-yl)methyl)acetamide], on hNLRP3, a half-maximal response (EC50) required 0.56 µM.

Regarding `CS(=O)(=O)NCc1nc2c(N)nc3cc(-c4cc[nH]n4)ccc3c2[nH]1` [Compound 116], on hNLRP3, a half-maximal effect (EC50) was put at 1.16 µM.

As to `CCN(Cc1nc2c(N)nc3cc(-c4cc[nH]n4)ccc3c2[nH]1)C(=O)c1ccccc1` [Compound 126], it took 2.1 µM to reach a half-maximal effect on hNLRP3 (EC50).

On to `CCN(Cc1nc2c(N)nc3cc(-c4cc[nH]n4)ccc3c2[nH]1)C(=O)CO` [Compound 133], for which it took 3.5 µM to reach a half-maximal effect on hNLRP3 (EC50).

Take `CCN(Cc1nc2c(N)nc3cc(-n4nccn4)ccc3c2[nH]1)C(=O)OC(C)(C)C` [Compound 135]: the EC50 on hNLRP3 is 4.6 µM.

For `Nc1nc2cc(-c3cc[nH]n3)ccc2c2[nH]c(CN3CC(c4ccccc4)CC3=O)nc12` (stereo not drawn) [Compound 137], the midpoint of the response on hNLRP3, the EC50, lay at 5.4 µM.

Regarding `CCN(C(C)=O)C(C)c1nc2c(N)nc3cc(Br)ccc3c2[nH]1` (stereo not drawn) [Compound 182, N-[1-(4-amino-7-bromo-1H-imidazo[4,5-c]quinolin-2-yl)ethyl]-N-ethylacetamide], the EC50 at hNLRP3 was 5.9 µM; on TLR7 it was greater than 100 µM.

`COc1ccc(-c2ccc3c(c2)nc(N)c2nc(CN4CCCC4=O)[nH]c23)cc1` [Compound 292, 1-[[4-amino-7-(4-methoxyphenyl)-1H-imidazo[4,5-c]quinolin-2-yl]methyl]pyrrolidin-2-one] showed an EC50 at hNLRP3 of 4.48 µM.

In turn, `COc1ccc(-c2ccc3c(c2)nc(N)c2nc(CN4CCCC4=O)[nH]c23)cn1` [Compound 304, 1-[[4-amino-7-(6-methoxypyridin-3-yl)-1H-imidazo[4,5-c]quinolin-2-yl]methyl]pyrrolidin-2-one] yielded an EC50 on hNLRP3 of 36.4 µM.

Regarding `Nc1nc2cc(-c3cccnc3F)ccc2c2[nH]c(CN3CCCC3=O)nc12` [Compound 307, 1-[[4-amino-7-(2-fluoropyridin-3-yl)-1H-imidazo[4,5-c]quinolin-2-yl]methyl]pyrrolidin-2-one], on hNLRP3, the midpoint of the response, the EC50, lay at 12.3 µM.

Consider `Nc1nc2cc(-c3ccsc3)ccc2c2[nH]c(CN3CCCC3=O)nc12` [Compound 308, 1-[(4-amino-7-thiophen-3-yl-1H-imidazo[4,5-c]quinolin-2-yl)methyl]pyrrolidin-2-one], for which the EC50 on hNLRP3 worked out at 1.06 µM.

Turning to `Nc1nc2ccccc2c2c1nc(CN1CCCC1=O)n2CCCC(=O)N1CCSCC1` [Compound 345], the EC50 on hNLRP3 is 64 µM.

`CN1CCN(Cc2nc3c(N)nc4cc(-c5cc[nH]n5)ccc4c3[nH]2)C(=O)C1` [Compound 350] showed an EC50 on hNLRP3 of 10 µM.

In the case of `Nc1nc2cc(-c3cc[nH]n3)ccc2c2[nH]c(CN3CCOCC3=O)nc12` [Compound 351], the EC50 on hNLRP3 was determined as 2.17 µM.

As for `Nc1nc2cc(-c3cc[nH]n3)ccc2c2[nH]c(CN3CCCCC3=O)nc12` [Compound 352], the midpoint of the response on hNLRP3, the EC50, lay at 2.23 µM.

The compound `CC(C)NCc1nc2c(N)nc3cc(-c4cc[nH]n4)ccc3c2[nH]1` [Compound 421] returned an EC50 at hNLRP3 of 0.24 µM.

On to `CCN(Cc1nc2c(N)nc3cc(-c4cccs4)ccc3c2[nH]1)C(=O)OC(C)(C)C` [Compound 424], for which the EC50 on hNLRP3 was 0.79 µM; on TLR7 it was greater than 100 µM.

As for `CCN(Cc1nc2c(N)nc3cc(-c4cccs4)ccc3c2[nH]1)C(C)=O` [Compound 425], the EC50 at hNLRP3 is 0.44 µM; on TLR7 it was greater than 100 µM.

Turning to `Nc1nc2cc(-c3cccnc3)ccc2c2[nH]c(CN3CCCCC3=O)nc12` [Compound 426], the EC50 at hNLRP3 is 4.3 µM; at TLR7, greater than 100 µM.

In the case of `Nc1nc2cc(Br)ccc2c2[nH]c(CN3CCCCC3=O)nc12` [Compound 428], the EC50 on hNLRP3 was 5.1 µM; at TLR7, greater than 100 µM.

On to `Nc1nc2cc(-n3cccn3)ccc2c2[nH]c(CN3CCOC3=O)nc12` [Compound 429], for which the values for the EC50 at hNLRP3 and at TLR7 were 5.8 µM and greater than 100 µM, respectively.

For `CN1CCN(Cc2nc3c(N)nc4cc(-c5cc[nH]n5)ccc4c3[nH]2)C(=O)C1` [Compound 432], the EC50 at hNLRP3 is roughly 10 µM.

On hNLRP3, `CC(C)(C)OC(=O)N1CCN(Cc2nc3c(N)nc4cc(-c5cccnc5)ccc4c3[nH]2)C(=O)C1` [Compound 433] came in with an EC50 of 11.5 µM.

Take `CCCn1c(CN(CC)C(C)=O)nc2c(N)nc3cc(Br)ccc3c21` [Compound 435]: the EC50 at hNLRP3 was 19.3 µM; on TLR7, greater than 100 µM.
